Data set [1] relates to Calf thymus DNA. The experiment in a line: Binding affinity to calf thymus DNA assessed as hypochromicity at DNA/drug ratio 4 after 15 mins by UV-vis spectrophotometer analysis. In kind it is nucleic-acid assay. The note with it: Bos taurus.
Data set [2] has as its system Calf thymus DNA. Briefly: Binding affinity to calf thymus DNA after 5 mins by fluorescence assay. Type of data set: nucleic-acid assay. To be noted: Bos taurus.
Data set [3] in a line: Lipophilicity, log P of the compound. In kind it is physicochemical. The note with it: octanol/water.
The subject of data set [4] is HeLa. The experiment in a line: cells. To be noted: Homo sapiens, 72 h.
Description: Cytotoxicity against human HeLa cells after 72 hrs by MTT assay
The nature of data set [5]: Cytotoxicity against human U87 cells after 72 hrs by MTT assay. Type of data set: functional, cell-based, U-87MG ATCC. To be noted: U-87 MG. (Tetrazolium dyes change colour on reduction, which living cells bring about.)
Data set [6] concerns HeLa. Briefly: Ratio of compound IC50 to Hoechst 33342 IC50 for human HeLa cells. In kind it is functional.
The test system of data set [7] is MCF7. Briefly: cells. To be noted: Homo sapiens, MCF7, 72 h.
Description: Cytotoxicity against human MCF7 cells after 72 hrs by MTT assay
For data set [8], the species on record is Homo sapiens. Briefly: Inhibition of human purified topoisomerase 1b-mediated relaxation of supercoiled pBS (SK+) DNA at 75 uM after 30 mins by agarose gel electrophoresis.
Data set [9] is filed under the species Homo sapiens. Briefly: Inhibition of human purified topoisomerase 1b-mediated relaxation of supercoiled pBS (SK+) DNA at 50 uM after 30 mins by agarose gel electrophoresis.
The species named for data set [10] is Homo sapiens. The experiment in a line: Inhibition of human purified topoisomerase 1b-mediated relaxation of supercoiled pBS (SK+) DNA at 10 uM after 30 mins by agarose gel electrophoresis.
Data set [11] concerns HeLa. The experiment in a line: Ratio of compound IC50 to camptothecin IC50 for human HeLa cells. In kind it is functional.
Data set [12] is filed under the species Homo sapiens. Briefly: Inhibition of human purified topoisomerase 1b-mediated relaxation of supercoiled pBS (SK+) DNA at 25 uM after 30 mins by agarose gel electrophoresis.
The nature of data set [13]: Ratio of compound IC50 to Hoechst 33342 IC50 for human U87 cells. In kind it is functional, U-87MG ATCC.
In data set [14] the test system is MCF7. Briefly: Ratio of compound IC50 to Hoechst 33342 IC50 for human MCF7 cells. Type of data set: functional.

Calls of active or inactive are those of the source. The calls are words filed in the database; no cut-off is given here.

Usually logP stands for a log measure of how a compound divides between an organic and an aqueous phase. Low values mean a more hydrophilic compound, high ones a more lipophilic compound. Broadly, the IC50 is the midpoint of a concentration-inhibition curve. For `CCOc1ccc(-c2nc3cc(-c4nc5cc(N6CCN(C)CC6)ccc5[nH]4)ccc3[nH]2)cc1`, the Activity in the data set with Calf thymus DNA [1] amounted to 38%. Besides, in the data set with Calf thymus DNA [2], the result was Active. Also, the logP in [3] is 3.95. Besides, the IC50 in the data set with HeLa [4] turned out to be 0.3 µM; in data set [5], 4.2 µM; in the data set with MCF7 [7] it was 0.5 µM. Besides, the “Ratio IC50” value in the data set on HeLa [6] worked out at 2.

A word on the inhibition: it is how much of the control response was suppressed. Low values mean little suppression, high ones strong suppression. Take `COc1cc(-c2nc3ccc(-c4nc5ccc(N6CCN(C)CC6)cc5[nH]4)cc3[nH]2)cc(OC)c1OC`: the inhibition in the data set filed under Homo sapiens [8] and in the data set filed under Homo sapiens [9] was 90% throughout. Also, the Activity in the data set with Calf thymus DNA [1] came out at 27%. In data set [3], this compound registered a lipophilicity (logP) of 3.36. Further, the 50% inhibitory concentration (IC50) is 29.3 µM with HeLa [4], greater than 100 µM in data set [5] and 16.8 µM with MCF7 [7].

Compound `CC[C@@]1(O)C(=O)OCc2c1cc1n(c2=O)Cc2cc3ccccc3nc2-1` [CAMPTOTHECIN] returned an inhibition in the data set listed under Homo sapiens [10] of 80%. For the same compound, the IC50 worked out at 1.5 µM in the data set with HeLa [4], 0.5 µM in data set [5] and 0.65 µM in the data set with MCF7 [7].

As to `CN1CCN(c2ccc3nc(-c4ccc5nc(-c6ccc(Cl)cc6Cl)[nH]c5c4)[nH]c3c2)CC1`, the Activity in the data set with Calf thymus DNA [1] was 28%. Also, the result in the data set on Calf thymus DNA [2] and in the data set filed under Homo sapiens [12] was Active. The “Ratio IC50” value with HeLa [11] is on record as 3; in [13] it was 2.8; in the data set on MCF7 [14] it was 2.6. The same compound displayed a logP in [3] of 4.85. Further, the figures for the IC50 (in the data set with HeLa [4]; in [5]; in the data set with MCF7 [7]) were 0.6 µM, 1.5 µM and 1.3 µM, respectively.

Regarding `CN1CCN(c2ccc3nc(-c4ccc5nc(-c6ccc(F)cc6F)[nH]c5c4)[nH]c3c2)CC1`, in the data set on Calf thymus DNA [1], the Activity was -20%. Further, the result in the data set with Calf thymus DNA [2] and in the data set filed under Homo sapiens [12] was Active. For the same compound, the log partition coefficient (logP) in [3] came to 4.05. Besides, the IC50 in the data set on HeLa [4] worked out at 1.5 µM; in data set [5], 5.5 µM; in the data set on MCF7 [7], 5.5 µM.

For the compound `COc1ccc(-c2nc3cc(-c4nc5cc(N6CCN(C)CC6)ccc5[nH]4)ccc3[nH]2)cc1OC`, the inhibition in the data set filed under Homo sapiens [8] and in the data set filed under Homo sapiens [9] was 90% in each case. In addition, the Activity in the data set on Calf thymus DNA [1] was 1%. In addition, the logP in data set [3] was 3.48. Besides, the IC50 with HeLa [4] was 3.4 µM; in data set [5], greater than 100 µM; in the data set with MCF7 [7], 5.3 µM.

Source of the values: ChEMBL document CHEMBL1667758, “Synthesis and biological activity of novel inhibitors of topoisomerase I: 2-aryl-substituted 2-bis-1H-benzimidazoles” (Eur J Med Chem, 2011).
